Among the data in patent publication US11261177B2, “Benzoxazinone derivatives useful as herbicides” (REDAG CROP PROTECTION LTD, priority 2017, dated 2022) are herbicidal activity and pest or weed control values, retold here.

Holding throughout (format): in vivo
The subject of experiment [1] is 2 weed species (Stellaria media—Chickweed and Lolium perenne). The experiment is described as follows: Herbicidal activity screen, summary in words over both weed species. To be noted: pre- and post-emergence, 0.2, 1 and 5 kg/ha. As to the method:
The compounds were screened at three concentrations (0.2, 1 and 5 kg/ha) against 2 weed species (Stellaria media—Chickweed and Lolium perenne). The seeds were sown in the cells of 96 cell trays (4-6 seeds per cell). For the pre-emergence assay, 75 μL of a suspension of the test compound, at the above doses, was added on top of the soil 1 day after sowing. For the post-emergence assay, the seedlings were sprayed with 200 μL of a suspension of the test compound two weeks after sowing. The formulation used is 25% acetone and 75% water/0.01% Tween 20. Each treatment was replicated three times. The plants were kept in a glasshouse (uncontrolled conditions) and assessed 7 days after treatment. A small number of compounds were tested in a first trial. A larger number of compounds were tested in a second trial. The assessment was based on the % control of plant growth in each cell.

Experiment [2] relates to Stellaria media—Chickweed. The experiment is described as follows: Pre-emergence herbicidal assay, 96 cell trays, glasshouse. To be noted: 168 h, assessed 7 days after treatment, read-out: % control of plant growth; for pest or weed control at 200 g/ha: 0.2 kg/ha; for pest or weed control at 1000 g/ha: 1 kg/ha; for pest or weed control at 5000 g/ha: 5 kg/ha. A digest of the protocol:
(§1)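 Seeds sown 4-6 per cell; test suspension (25% acetone, 75% water/0.01% Tween 20) put on soil at day 1 or sprayed onto two-week-old seedlings. Rates 0.2/1/5 kg/ha, triplicate. Scored as % growth control after 7 days.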

In experiment [3] the test system is Lolium perenne. The description is as above. The conditions noted are these: 168 h, Lollium, assessed 7 days after treatment, read-out: % control of plant growth; for pest or weed control at 200 g/ha: 0.2 kg/ha; for pest or weed control at 1000 g/ha: 1 kg/ha; for pest or weed control at 5000 g/ha: 5 kg/ha. In outline: as §1
In experiment [4] the test system is Stellaria media—Chickweed. As to the kind of experiment: Post-emergence herbicidal assay, 96 cell trays, glasshouse. The conditions noted are these: 168 h, assessed 7 days after treatment, read-out: % control of plant growth; for pest or weed control at 200 g/ha: 0.2 kg/ha; for pest or weed control at 1000 g/ha: 1 kg/ha; for pest or weed control at 5000 g/ha: 5 kg/ha. In outline:
as §1

The subject of experiment [5] is Lolium perenne. Described as above. The conditions noted are these: 168 h, Lollium, assessed 7 days after treatment, read-out: % control of plant growth; for pest or weed control at 200 g/ha: 0.2 kg/ha; for pest or weed control at 1000 g/ha: 1 kg/ha; for pest or weed control at 5000 g/ha: 5 kg/ha. In outline:
as §1

Take `C#CCN1C(=O)C2(CC2)Oc2cc(F)c(-n3ncc(C(F)(F)F)c(C)c3=O)cc21` [Example 4, 7-Fluoro-6-(5-methyl-6-oxo-4-(trifluoromethyl)pyridazin-1(6H)-yl)-4-(prop-2-yn-1-yl)spiro[benzo[b][1,4]oxazine-2,1′-cyclopropan]-3(4H)-one]: the herbicidal activity result in experiment [1] is given as “excellent herbicidal activity against all tested species”. Besides, the pest or weed control at 200 g/ha in experiment [2] (first trial (Table 1)) was in the range of 80 to 100%; in experiment [2] (second trial (Table 2)), 80 to 100%; with Lolium perenne [3] (first trial (Table 1)) it was 80 to 100%; in the experiment with Lolium perenne [3] (second trial (Table 2)) it was 80 to 100%; in experiment [4] (first trial (Table 1)), 20 to 80%; in experiment [4] (second trial (Table 2)), 80 to 100%. Moreover, the pest or weed control at 200 g/ha with Lolium perenne [5] (first trial (Table 1)) and in the experiment on Lolium perenne [5] (second trial (Table 2)) was 80 to 100% throughout. The pest or weed control at 1000 g/ha lay within 80 to 100% in experiment [2] (first trial (Table 1)); 80 to 100% in experiment [2] (second trial (Table 2)); 80 to 100% in the experiment with Lolium perenne [3] (first trial (Table 1)); 80 to 100% in the experiment on Lolium perenne [3] (second trial (Table 2)); 20 to 80% in experiment [4] (first trial (Table 1)); 80 to 100% in experiment [4] (second trial (Table 2)). For the same molecule, the pest or weed control at 1000 g/ha in the experiment on Lolium perenne [5] (first trial (Table 1)) and in the experiment on Lolium perenne [5] (second trial (Table 2)) was 80 to 100% each time. Further, the pest or weed control at 5000 g/ha in experiment [2] (first trial (Table 1)) fell in the range of 80 to 100%; in experiment [2] (second trial (Table 2)), 80 to 100%; with Lolium perenne [3] (first trial (Table 1)), 80 to 100%; in the experiment with Lolium perenne [3] (second trial (Table 2)), 80 to 100%; in experiment [4] (first trial (Table 1)), 20 to 80%; in experiment [4] (second trial (Table 2)), 80 to 100%. The pest or weed control at 5000 g/ha in the experiment on Lolium perenne [5] (first trial (Table 1)) and in the experiment with Lolium perenne [5] (second trial (Table 2)) was 80 to 100% throughout.

For the molecule `C#CCN1C(=O)C2(CC2)Oc2cc(F)c(N3C(=O)c4ccc(C)cc4C3=O)cc21` [Example 8], in experiment [1], the herbicidal activity entry is recorded as “excellent herbicidal activity against all tested species”. In addition, the pest or weed control at 200 g/ha in experiment [2] (second trial (Table 2)) was in the range of 80 to 100%; in the experiment on Lolium perenne [3] (second trial (Table 2)), 20 to 80%; in experiment [4] (second trial (Table 2)), 80 to 100%; in the experiment with Lolium perenne [5] (second trial (Table 2)), 20 to 80%. Moreover, the pest or weed control at 1000 g/ha (in experiment [2] (second trial (Table 2)); with Lolium perenne [3] (second trial (Table 2)); in experiment [4] (second trial (Table 2)); in the experiment with Lolium perenne [5] (second trial (Table 2))) was 80 to 100% in each case. The pest or weed control at 5000 g/ha (in experiment [2] (second trial (Table 2)); in the experiment on Lolium perenne [3] (second trial (Table 2)); in experiment [4] (second trial (Table 2)); with Lolium perenne [5] (second trial (Table 2))) was 80 to 100% in each case.

Take `COC(=O)C(C)N1C(=O)C2(CC2)Oc2cc(F)c(N3C(=O)C4=C(CCCC4)C3=O)cc21` (stereo not shown) [Example 15]: the herbicidal activity entry in experiment [1] is on record as “excellent herbicidal activity against all tested species”. For the same molecule, the pest or weed control at 200 g/ha in experiment [2] (second trial (Table 2)) is 80 to 100%; in the experiment on Lolium perenne [3] (second trial (Table 2)), 20 to 80%; in experiment [4] (second trial (Table 2)), 80 to 100%; in the experiment with Lolium perenne [5] (second trial (Table 2)) it was 20 to 80%. The pest or weed control at 1000 g/ha (in experiment [2] (second trial (Table 2)); in the experiment with Lolium perenne [3] (second trial (Table 2)); in experiment [4] (second trial (Table 2)); in the experiment with Lolium perenne [5] (second trial (Table 2))) was 80 to 100% each time. The pest or weed control at 5000 g/ha (in experiment [2] (second trial (Table 2)); in the experiment with Lolium perenne [3] (second trial (Table 2)); in experiment [4] (second trial (Table 2)); in the experiment on Lolium perenne [5] (second trial (Table 2))) was 80 to 100% throughout.

Consider `CCOC(=O)C(C)N1C(=O)C2(CC2)Oc2cc(F)c(N3C(=O)C4=C(CCCC4)C3=O)cc21` (stereo not shown) [Example 18], for which the herbicidal activity result in experiment [1] is “excellent herbicidal activity against all tested species”. Also, the pest or weed control at 200 g/ha in experiment [2] (second trial (Table 2)) fell in the range of 80 to 100%; in the experiment on Lolium perenne [3] (second trial (Table 2)), 80 to 100%; in experiment [4] (second trial (Table 2)) it was 80 to 100%; with Lolium perenne [5] (second trial (Table 2)) it was 20 to 80%. Besides, the pest or weed control at 1000 g/ha (in experiment [2] (second trial (Table 2)); with Lolium perenne [3] (second trial (Table 2)); in experiment [4] (second trial (Table 2)); with Lolium perenne [5] (second trial (Table 2))) was 80 to 100% throughout. In addition, the pest or weed control at 5000 g/ha (in experiment [2] (second trial (Table 2)); with Lolium perenne [3] (second trial (Table 2)); in experiment [4] (second trial (Table 2)); in the experiment with Lolium perenne [5] (second trial (Table 2))) was 80 to 100% each time.
